In article PMC9851200, “Multiparameter phenotypic screening for endogenous TFEB and TFE3 translocation identifies novel chemical series modulating lysosome function” (Autophagy, 2022):

What was measured:
endogenous TFEB = assay: TFEB nuclear translocation, immunocytochemistry high-content imaging; format: cell-based
endogenous TFE3 = assay: TFE3 nuclear translocation, immunocytochemistry high-content imaging; format: cell-based
SH-SY5Y cells [1] = conditions: human, SH-SY5Y cells, 24 h, 1 µM
SH-SY5Y cells [2] = assay: Chemotype enrichment analysis of PKIS2 primary screen hit categories
SH-SY5Y cells [3] = conditions: human, SH-SY5Y cells, 24 h, 1 µM; remark: listed apart in the source
Procedure: Total cell lysis with 5 µL 5% Triton-X 100 (Sigma-Aldrich, T8787) is used as a positive control for the assay and toxicity is expressed as a percentage of luminescence under DMSO conditions.

SH-SY5Y cells [4] = test system: SH-SY5Y cells; also: reference of the scale not given here

| SMILES | TFEB % (endogenous TFEB) [%] | TFE3 % (endogenous TFE3) [%] | Nuclear Count (SH-SY5Y cells [1]) | Outcome (SH-SY5Y cells [2]) | AK (SH-SY5Y cells [3]) | DQ Intensity (SH-SY5Y cells [4]) | DQ Spot (SH-SY5Y cells [4]) |
| --- | --- | --- | --- | --- | --- | --- | --- |
| O=C(Nc1n[nH]c2nc(-c3ccco3)c(Br)cc12)C1CCN(Cc2ccccc2)C1 (stereo not shown) [SB-742034] | 3.21 | 21.82 | 103.32 | TFE3 | 87.38 | 103.44 | 100.36 |
| Nc1n[nH]c2nnc(-c3ccccc3)cc12 [SB-517389] | 5.21 | 18.57 | 69.78 | DQ Only | 99.42 | 136.15 | 127.72 |
| O=C1NC(=O)C(N2CCc3ccccc32)=C1c1ccccc1Cl [UNC10225255A] | 3.84 | 11.28 | 86.30 | DQ Only | 83.08 | 155.35 | 121.27 |
| COc1ccc(C2=C(Nc3cccc(O)c3)C(=O)NC2=O)cc1 [UNC10225299A] | 8.50 | 15.17 | 77.10 | DQ Only | 102.75 | 174.21 | 115.16 |
| O=C(Nc1n[nH]c2nc(-c3ccccc3)c(Cl)cc12)C1CC1 [SB-734909] | 6.63 | 10.45 | 45.35 | DQ Only | 83.64 | 123.78 | 126.24 |
| Nc1n[nH]c2ncc(-c3ccccc3)cc12 [SB-517081] | 4.88 | 10.19 | 74.04 | DQ Only | 82.09 | 121.05 | 122.46 |
| COc1cccc(C2=C(Nc3cccc(C(=O)O)c3)C(=O)NC2=O)c1 [UNC10225061A] | 7.42 | 19.97 | 71.42 | TFE3 | 91.51 | 83.20 | 110.64 |
| CN(C1=C(c2ccccc2)C(=O)NC1=O)c1ccccc1 [UNC10225087A] | 6.00 | 7.91 | 105.86 | TOXIC | 157.36 | 118.90 | 112.39 |
| CCCC(=O)Nc1n[nH]c2ncc(-c3cccc4ccccc34)cc12 [SB-642057] | 5.52 | 14.05 | 59.85 | TOXIC | 230.70 | 126.93 | 107.10 |
| O=C(Nc1n[nH]c2nc(-c3cccc(O)c3)ccc12)C1CC1 [SB-711805] | 10.76 | 23.15 | 107.31 | TFE3 | 105.72 | 78.27 | 112.05 |
| Fc1ccc(-c2ncn(C3CCNCC3)c2-c2ccnc(Oc3ccc(-c4ccccc4)cc3)n2)cc1 [UNC10225377A] | 13.41 | 24.21 | 106.99 | TFE3 + DQ Int | 108.76 | 170.99 | 76.67 |
| O=C1NC(=O)C(N2CCc3ccccc32)=C1c1cccc(Cl)c1 [UNC10225137A] | 4.79 | 20.87 | 132.24 | TFE3 | 100.20 | 107.62 | 107.27 |
| O=C(Nc1n[nH]c2nc(-c3ccccc3O)ccc12)C1CC1 [SB-711880] | 4.35 | 12.20 | 102.12 | – | 88.20 | 70.14 | 92.53 |
| O=C(Nc1n[nH]c2nc(-c3ccc(O)cc3)ccc12)C1CC1 [SB-710363] | 15.49 | 18.16 | 103.55 | DQ Only | 133.76 | 87.11 | 130.75 |
| O=C1NC(=O)C(c2ccccc2)=C1Nc1cccc(O)c1 [UNC10225065A] | 4.40 | 9.48 | 88.09 | – | 106.60 | 107.12 | 107.03 |
| COc1ccccc1-c1ccc2c(NC(=O)C3CC3)n[nH]c2n1 [SB-711239] | 3.98 | 10.01 | 104.88 | – | 73.81 | 73.89 | 92.69 |
